Reference: patent US5004758A, “Water soluble camptothecin analogs useful for inhibiting the growth of animal tumor cells” (priority 1988, dated 1991)
Where “and” joins values, the source holds several entries; their conditions need not be identical. Equal values may be shown once. Where a name gives a salt, the structure may show the parent alone. Read-outs that look alike come from different tables or passages of the source.

How the values were obtained:
[1] = system: sc colon adenocarcinoma 51; format: in vivo, mouse; conditions: for Tumor growth inhibition (TGI) / Mice without Palpable Tumors: sc Colon 51
From the text: (§1) The inoculum varies with the tumor.

[2] = system: sc Lewis lung carcinoma; format: in vivo, mouse; conditions: mouse, in vivo
From the text: as §1

[3] = system: sc B16 melanoma; conditions: for ILS: mouse, in vivo; for Tumor growth inhibition (TGI) / Mice without Palpable Tumors: sc B16
From the text: Inhibition of tumor growth (TGI) is based on mean tumor volume of groups of 7 or 8 mice relative to untreated controls.
(§2) Tumors used in these studies are maintained by serial transplantation in syngeneic strains of mice C57BL/6 for Lewis lung carcinoma, B16 melanoma and its F10 subline, M5076 sarcoma and colon adenocarcinoma 38; BALB/c for colon carcinoma 26, ADJ-PC6 plasmacytoma Madison lung carcinoma and colon adenocarcinoma 51, C3H for mammary adenocarcinoma 16/c. With the exception of the M5076 sarcoma, which is maintained as a i.p ascites cell suspension, all of the tumors were serially transplanted as s.c. solid tumors.
(§3) For therapeutic trials, tumors were aseptically removed from donor mice and prepared for implantation s.c. into test animals. The test animals for Lewis lung carcinoma, B16 melanoma and its F10 subline, M5076 sarcoma and colon adenocarcinoma 38 are syngeneic female F1 hybrid B6D2F mice (C57B1/6×DBA/2). ADJ-PC6 plasmacytoma and colon carcinoma 26 are evaluated in female BALB/c mice. Madison lung carcinoma and colon adenocarcinoma 51 are evaluated in syngeneic female F1 hybrid CD2F1 mice (BALB/c×DBA/2). Mammary adenocarcinoma 16/c is evaluated in female C3H mice. The inoculum varies with the tumor. Colon adenocarcinomas 38 is implanted as 2 mm fragments by trochar. M5076 sarcoma and ADJ-PC6 plasmacytoma are implanted as cell suspensions at 5×10^6 and 2×10^6 cells per mouse, respectively. Colon carcinoma 26, colon adenocarcinoma 51, Lewis lung carcinoma, Madison lung carcinoma and B16 melanoma and its F10 subline are implanted as tumor breis prepared as described above in a volume of 0.5 ml. The brei concentration was 10 percent (w:v) except for colon carcinoma 26 for which the brei concentration was 5 percent (w:v). After tumor inoculation, mice are randomized to treatment groups of 7 or 8 mice. In each experiment, there are three groups of untreated control mice.
(§4) Drugs are dissolved or suspended in appropriate aqueous vehicles and given by a variety of routes of administration and treatment schedules over a range of dosage levels. Animals are housed in shoebox cages and are monitored daily for mortality. […] Time for tumor measurement is dependent on the different rates of tumor growth of the different tumors: the most rapidly growing tumors such as the Lewis and Madison lung tumors, B16 melanoma and its F10 subline were measured between Days 12 and 16. The slower growing tumors were measured at later time points--17 days for M5076 sarcoma, 16 or 19 days for mammary adenocarcinoma 16/c, 19 days for ADJ-PC6 plasmacytoma and colon carcinoma 26, 24 days for colon adenocarcinoma 51, and 31 days for colon adenocarcinoma 38.
For highly metastatic tumors including: Lewis and Madison lung tumors, colon carcinoma 26 and B16 melanoma and its F10 subline, tumor-bearing mice are monitored for survival time as well. For the less mestastatic tumor models, tumor-bearing mice are killed following tumor measurement. In this setting, an increase in lifespan of ≥30 percent is considered to be evidence of drug activity.

[4] = system: ip B16 melanoma/F10 subline; conditions: mouse, in vivo; for Increase in lifespan (ILS): ip
From the text: (§5) Tumors used in these studies--P388 leukemia and its doxorbicin--and mitoxanrone-resistant sublines, L1210 leukemia, B16 melanoma, B16 melanoma/F10 subline, M5076 sarcoma and colon carcinoma 26--are maintained by serial transplantation in syngeneic strains of mice. For the leukemias, these tumors are maintained in DBA/2 mice. The M5076 sarcoma, the B16 melanoma and its F10 subline are maintained in C57B1/6 mice and the colon sarcinoma 26 is maintained in BALB/c mice. The leukemias and the M5076 sarcoma are serially transplanted i.p. as ascites cell suspensions while the B16 melanoma lines and the colon carcinoma 26 are serially transplanted as s.c. solid tumors.
(§6) For therapeutic trials, tumors are aseptically removed from donor mice and prepared as suspensions for implantation ip into test animals. The test animals for the colon carcinoma 26 are female BALB/c mice (20-25 gm). The test animals for the other tumor models are syngeneic female F1 hybrid B6D2F1 mice (C57B1/6 x DBA/2). The inoculum level varies with the type of tumor: P388 leukemia is inoculated at 10^6 cells per mouse, L1210 leukemia at 10^5 or 10^6 cells per mouse, M5076 sarcoma at 5×10^6 cells per mouse. For implantation of the B16 melanoma lines and the colon carcinoma 26, s.c. tumors from donor mice are minced and homogenized in loose fitting teflon glass homogenizer to give a tumor brei. The inoculum levels are 0.5 ml of a 10 percent (w:v) brei of the B16 melanoma lines and 0.5 ml of a 5 percent (w:v) brei of colon carcinoma 26. After tumor inoculation, mice randomized to treatment groups comprised of 6-8 mice each. In each experiment, there are three groups of untreated control mice. Drugs are dissolved or suspended in appropriate aqueous vehicles and given by a variety of routes and schedules of administration over a range of dose levels. Animals are housed in shoebox cages and are monitored daily for mortality for 30 (L1210), 45 (P388) or 60 (B16, M5076, colon 26) days.

[5] = system: ip P388 leukemia; conditions: mouse, in vivo, ip
Method: (§7) Increase in lifespan (ILS) is based on median survival time of groups of 6 mice. Net tumor cell kill (NCK) is calculated from median survival time by standard methods, since survival time is a linear function of the log tumor cell burden.
Animals were implanted ip with 10^6 cells. Increase in lifespan (ILS) is based on median survival time of groups of 6 mice relative to untreated controls. Long-term survivors were tumor-free on Day 45.
as §5, §6

[6] = system: P388/Doxorubicin; assay: ip P388/Doxorubicin multidrug resistant subline in mice; conditions: for ILS / NCK (net tumor cell kill): P388/Doxorubicin, ip, Days 1 and 5
Method: as §7
For the leukemias, these tumors are maintained in DBA/2 mice. […] The leukemias and the M5076 sarcoma are serially transplanted i.p. as ascites cell suspensions while the B16 melanoma lines and the colon carcinoma 26 are serially transplanted as s.c. solid tumors.
For therapeutic trials, tumors are aseptically removed from donor mice and prepared as suspensions for implantation ip into test animals. […] The test animals for the other tumor models are syngeneic female F1 hybrid B6D2F1 mice (C57B1/6 x DBA/2). The inoculum level varies with the type of tumor: P388 leukemia is inoculated at 10^6 cells per mouse, L1210 leukemia at 10^5 or 10^6 cells per mouse, M5076 sarcoma at 5×10^6 cells per mouse. […] After tumor inoculation, mice randomized to treatment groups comprised of 6-8 mice each. In each experiment, there are three groups of untreated control mice. Drugs are dissolved or suspended in appropriate aqueous vehicles and given by a variety of routes and schedules of administration over a range of dose levels. Animals are housed in shoebox cages and are monitored daily for mortality for 30 (L1210), 45 (P388) or 60 (B16, M5076, colon 26) days.

[7] = system: sc ADJ-PC6 plasmacytoma; assay: sc-implanted ADJ-PC6 plasmacytoma in mice; format: in vivo, mouse; conditions: for Mice without Palpable Tumors: sc ADJ-PC6, B/ip
Method: Inhibition of tumor growth (TGI) is based on mean tumor volume of groups of 7 or 8 mice relative to untreated controls. Tumors were measured between Days 12 and 19 (except Day 24 for Colon 51 and Day 31 for Colon 38).
as §2, §3, §4

Structure (SMILES): CC[C@@]1(O)C(=O)OCc2c1cc1n(c2=O)Cc2cc3c(CN(C)C)c(O)ccc3nc2-1 [Compound No. 1S, (20 S) 9-Dimethylaminomethyl-10-hydroxycamptothecin Acetate Salt]
- Tumor growth inhibition (TGI) ([1]; G/ip (Days 3, 10, 17 and 24), 3.1 mg/kg/injection): 34%
- Tumor growth inhibition (TGI) ([1]; G/ip (Days 3, 10, 17 and 24), 5.2 mg/kg/injection): 36%
- Tumor growth inhibition (TGI) ([1]; G/ip (Days 3, 10, 17 and 24), 8.6 mg/kg/injection): 53%
- Tumor growth inhibition (TGI) ([1]; G/ip (Days 3, 10, 17 and 24), 14 mg/kg/injection): 76%
- Tumor growth inhibition (TGI) ([1]; G/ip (Days 3, 10, 17 and 24), 24 mg/kg/injection): 88%
- Mice without Palpable Tumors ([1]; G/ip, 8.6 mg/kg/injection): 1/8
- Mice without Palpable Tumors ([1]; G/ip, 14 mg/kg/injection): 1/8
- Mice without Palpable Tumors ([1]; G/ip, 24 mg/kg/injection): 3/8
- Tumor growth inhibition (TGI) ([1]; H/ip (every 3 hours x4 on Days 3, 10, 14 and 24), 0.47 mg/kg/injection): 37%
- Tumor growth inhibition (TGI) ([1]; H/ip (every 3 hours x4 on Days 3, 10, 14 and 24), 0.78 mg/kg/injection): 73%
- Tumor growth inhibition (TGI) ([1]; H/ip (every 3 hours x4 on Days 3, 10, 14 and 24), 1.3 mg/kg/injection): 88%
- Tumor growth inhibition (TGI) ([1]; H/ip (every 3 hours x4 on Days 3, 10, 14 and 24), 2.2 mg/kg/injection): 89%
- Tumor growth inhibition (TGI) ([1]; H/ip (every 3 hours x4 on Days 3, 10, 14 and 24), 3.6 mg/kg/injection): 92%
- Mice without Palpable Tumors ([1]; H/ip, 0.78 mg/kg/injection): 1/8
- Mice without Palpable Tumors ([1]; H/ip, 1.3 mg/kg/injection): 3/8
- Mice without Palpable Tumors ([1]; H/ip, 2.2 mg/kg/injection): 4/8
- Mice without Palpable Tumors ([1]; H/ip, 3.6 mg/kg/injection): 4/8
- Increase in Lifespan (ILS) or Inhibition of Tumor Growth (TGI) ([1]; sc Colon Adenocarcinoma 51, optimal doses and optimal schedules): 92 % TGI
- bioavailability upon oral administration [2]: excellent bioavailability upon oral administration
- Tumor growth inhibition (TGI) ([2]; 3.2 mg/kg): 31%
- Mice without Palpable Tumors ([2]; 5.4 mg/kg, Acetate Salt): 2/8 and 4/8
- Tumor growth inhibition (TGI) ([2]; 5.4 mg/kg, Acetate Salt): 68% and 87%
- Tumor growth inhibition (TGI) ([2]; 5.8 mg/kg): 51%
- longterm, tumorfree survivors ([2]; 9 mg/kg): 2/8
- Tumor growth inhibition (TGI) ([2]; 9 mg/kg, Acetate Salt): 99% and 93%
- Mice without Palpable Tumors ([2]; 9.7 mg/kg): 2/8
- Tumor growth inhibition (TGI) ([2]; 9.7 mg/kg): 89%
- Tumor growth inhibition (TGI) ([2]; 15 mg/kg): 95%
- longterm, tumorfree survivors ([2]; 15 mg/kg): 4 of 8
- Mice without Palpable Tumors ([2]; 15 mg/kg, Acetate Salt): 8/8 and 3/8
- Tumor growth inhibition (TGI) ([2]; 15 mg/kg, Acetate Salt): 100%
- longterm, tumorfree survivors ([2]; 15 mg/kg, Acetate Salt): 4/8
- Mice without Palpable Tumors ([2]; 16 mg/kg): 1/8
- Tumor growth inhibition (TGI) ([2]; 16 mg/kg): 90%
- Mice without Palpable Tumors ([2]; 25 mg/kg): 5/8
- Tumor growth inhibition (TGI) ([2]; 25 mg/kg): toxic
- Mice without Palpable Tumors ([2]; 27 mg/kg): 4/8
- Tumor growth inhibition (TGI) ([2]; 45 mg/kg): toxic
- Increase in Lifespan (ILS) or Inhibition of Tumor Growth (TGI) ([2]; sc): Curative
- ILS [3]: 53
- ILS ([3]; 24 mg/kg): 39
- ILS ([3]; sc): 52
- Tumor growth inhibition (TGI) ([3]; C/ip (every 3 hours x4 on Days 1, 5 and 9), 0.78 mg/kg/injection): 46%
- Tumor growth inhibition (TGI) ([3]; C/ip (every 3 hours x4 on Days 1, 5 and 9), 1.3 mg/kg/injection): 64%
- Tumor growth inhibition (TGI) ([3]; C/ip (every 3 hours x4 on Days 1, 5 and 9), 2.2 mg/kg/injection): 92%
- Tumor growth inhibition (TGI) ([3]; C/ip (every 3 hours x4 on Days 1, 5 and 9), 3.6 mg/kg/injection): 100%
- Tumor growth inhibition (TGI) ([3]; C/ip (every 3 hours x4 on Days 1, 5 and 9), 6 mg/kg/injection): 100%
- Mice without Palpable Tumors ([3]; C/ip, 0.78 mg/kg/injection): 1/8
- Mice without Palpable Tumors ([3]; C/ip, 1.3 mg/kg/injection): 1/8
- Mice without Palpable Tumors ([3]; C/ip, 2.2 mg/kg/injection): 2/8
- Mice without Palpable Tumors ([3]; C/ip, 3.6 mg/kg/injection): 7/7
- Mice without Palpable Tumors ([3]; C/ip, 6 mg/kg/injection): 7/7
- Tumor growth inhibition (TGI) ([3]; F/ip (Days 1, 5 and 9), 3.1 mg/kg/injection): 63%
- Tumor growth inhibition (TGI) ([3]; F/ip (Days 1, 5 and 9), 5.2 mg/kg/injection): 20%
- Tumor growth inhibition (TGI) ([3]; F/ip (Days 1, 5 and 9), 8.6 mg/kg/injection): 63%
- Tumor growth inhibition (TGI) ([3]; F/ip (Days 1, 5 and 9), 14 mg/kg/injection): 57%
- Tumor growth inhibition (TGI) ([3]; F/ip (Days 1, 5 and 9), 24 mg/kg/injection): 99%
- Mice without Palpable Tumors ([3]; F/ip, 3.1 mg/kg/injection): 2/8
- Mice without Palpable Tumors ([3]; F/ip, 5.2 mg/kg/injection): 1/8
- Mice without Palpable Tumors ([3]; F/ip, 8.6 mg/kg/injection): 3/8
- Mice without Palpable Tumors ([3]; F/ip, 14 mg/kg/injection): 3/8
- Mice without Palpable Tumors ([3]; F/ip, 24 mg/kg/injection): 7/8
- Tumor growth inhibition (TGI) ([3]; F/iv (Days 1, 5 and 9), 3.2 mg/kg/injection): 54%
- Tumor growth inhibition (TGI) ([3]; F/iv (Days 1, 5 and 9), 5.4 mg/kg/injection): 79%
- Tumor growth inhibition (TGI) ([3]; F/iv (Days 1, 5 and 9), 9 mg/kg/injection): 96%
- Tumor growth inhibition (TGI) ([3]; F/iv (Days 1, 5 and 9), 15 mg/kg/injection): 99%
- Tumor growth inhibition (TGI) ([3]; F/iv (Days 1, 5 and 9), 25 mg/kg/injection): toxic
- Mice without Palpable Tumors ([3]; F/iv, 3.2 mg/kg/injection): 2/8
- Mice without Palpable Tumors ([3]; F/iv, 5.4 mg/kg/injection): 3/8
- Mice without Palpable Tumors ([3]; F/iv, 9 mg/kg/injection): 6/8
- Mice without Palpable Tumors ([3]; F/iv, 15 mg/kg/injection): 7/8
- Increase in Lifespan (ILS) or Inhibition of Tumor Growth (TGI) ([3]; sc B16 Melanoma, optimal doses and optimal schedules): 100 % TGI
- increases in lifespan at two lower doses [4]: > 40
- Increase in lifespan (ILS) ([4]; 3.2 mg/kg): 37%
- Increase in lifespan (ILS) ([4]; 5.4 mg/kg): 63%
- Increase in lifespan (ILS) ([4]; 9 mg/kg): 68%
- Increase in lifespan (ILS) ([4]; 25 mg/kg): toxic
- Increase in Lifespan (ILS) or Inhibition of Tumor Growth (TGI) [5]: Curative
- long term survivors [5]: 2/6
- Long-Term Survivors ([5]; 15 mg/kg): 4/6
- Increase in lifespan (ILS) ([5]; 30 mg/kg): toxic
- ILS ([6]; 3.2 mg/kg): 14%
- NCK (net tumor cell kill) ([6]; 3.2 mg/kg): 0 log
- ILS ([6]; 5.4 mg/kg): 33%
- NCK (net tumor cell kill) ([6]; 5.4 mg/kg): 0 log
- ILS ([6]; 9 mg/kg): 90%
- NCK (net tumor cell kill) ([6]; 9 mg/kg): 2.2 log
- ILS ([6]; 15 mg/kg): 176%
- NCK (net tumor cell kill) ([6]; 15 mg/kg): 6.0 log
- ILS ([6]; 25 mg/kg): toxic
- sensitivity / resistance of subline ([6]; P388/doxorubicin in mice): retained sensitivity
- inhibition of tumor growth at four dose levels at or below the maximally tolerated dose ([7]; mouse, in vivo): > 90
- long term tumor-free survivors at each of the top three dose levels ([7]; mouse, in vivo): 1 of 8
- Tumor growth inhibition (TGI) ([7]; mouse, in vivo, 3.2 mg/kg): 93%
- Tumor growth inhibition (TGI) ([7]; mouse, in vivo, 5.4 mg/kg): 92%
- long-term, tumorfree survivors ([7]; mouse, in vivo, 5.4 mg/kg): 1/8
- Tumor growth inhibition (TGI) ([7]; mouse, in vivo, 9 mg/kg): 100%
- long-term, tumorfree survivors ([7]; mouse, in vivo, 9 mg/kg): 1/8
- long-term, tumorfree survivors ([7]; mouse, in vivo, 15 mg/kg): 1/8
- Tumor growth inhibition (TGI) ([7]; mouse, in vivo, 25 mg/kg): toxic
- Increase in Lifespan (ILS) or Inhibition of Tumor Growth (TGI) ([7]; mouse, in vivo, sc): 100 % TGI
- Mice without Palpable Tumors ([7]; 3.2 mg/kg/injection): 3/8
- Mice without Palpable Tumors ([7]; 5.4 mg/kg/injection): 4/8
- Mice without Palpable Tumors ([7]; 9 mg/kg/injection): 8/8
- Mice without Palpable Tumors ([7]; 15 mg/kg/injection): 7/7
